Assay results reported in patent publication US5324730A, “Phenoxyphosphoryloxymethyl cyclobutyl purines” (Nippon Kayaku Kabushiki Kaisha, priority 1990, dated 1994).
In brackets after ≈: the same amount, converted by molar mass.

What was measured:
[1] = Oral absorbability: plasma concentration of Compound 1a (B^1 = 9-guanyl) in mice after oral or intravenous administration (Method 4); type: in vivo; settings: Compound 1a (B^1 = 9-guanyl) in plasma, male CDF1 mice; for AUC, intravenous injection / Tmax, intravenous injection: 75 μM/kg intravenous; for AUC, oral administration / Tmax, oral administration: 75 μM/kg oral
Description: Oral absorbability of compounds of this invention were tested according to the following method.
Male CDF1 mice (6-8 weeks in age) (Japan Charles Liver Co.) were used. Each substance to be tested was dissolved into physiological salt solution, and its 75 μM/kg dosage (0.1-0.5 ml/10 g dosage) was administered orally or intravenously. Ten minutes, thirty minutes, one hour and 3 hours after the administration, blood was taken from 2-3 heads of mice by means of an injection tube previously treated with heparin, and the blood was centrifuged at 3,000 rpm for 10 minutes to obtain a plasma. To 200 μl of the plasma was added 9-[2-hydroxy-3-hydroxymethylcyclobutan-1-yl]-guanine (2 μg/10 μl […]) as an internal standard. After diluting it with 4 ml of water, it was washed with 2 ml of water by the use of Ceppack C18 Cartridge (Millipore Waters Co.). It was eluted with 5 ml of methanol, concentrated to dryness, re-dissolved into 200 μl of water, and then subjected to HPLC to measure the concentration of 9-((1R,2R,3S)-2,3-bis(hydroxymethyl)-1cyclobutyl) guanine (Compound 1a, wherein B^1 =9-guanyl), from which maximum concentration (Cmax), time of maximum concentration (Tmax) and the area under the concentration curve (AUC) were determined.
Column: Cosmosil 5C18-P (Nacalai Tesque, 250 mm×4.6 mm, i.d.)
Solvent: 0.1. M citric acid (pH 4): acetonitrile:methanol=50:2:1

[2] = tested on: human cytomegalo-virus (HCMV); assay: Antiviral activity against HCMV, plaque reduction in human embryonic fibroblasts (Method 2); type: cell-based; settings: Human betaherpesvirus 5, Fibroblast, plaque number reduced to 50%, 9 or 10 days
Description: Antiviral activity against human cytomegalo-virus (HCMV) which is a DNA virus was tested by the following method.
Confluent monolayers of human embryonic fibroblasts in plastic dishes (diameter: 35 mm) were infected with 100 to 150 plaque forming units of HCMV. After an 1-hour adsorption period at 37° C., the cultures were overlaid with 2 ml of 0.5% agarose in Eagle's minimum essential medium containing 3% fetal calf serum and various concentrations of drugs. The cultures infected with HCMV were fixed and stained at 9 or 10 days after infection. The second agarose overlay containing appropriate concentrations of drugs was added 5 days after infection. Plaque numbers were counted by using a dissecting microscope at ×20 magnification. The antiviral activities of drugs were expressed in terms of median effective concentrations (EC50) which were defined as the drug concentrations that reduced the number of plaques to 50%.

[3] = tested on: Herpes simplex 1 virus (HSV-1); assay: Antiviral activity against HSV-1, CPE inhibition in Vero cells (Method 1); type: cell-based; settings: Human alphaherpesvirus 1, 50% inhibition of CPE, about 72 hours, Neutral Red
Description: Antiviral activity against Herpes simplex 1 virus (HSV-1) which is a DNA virus was tested by the following method.
Vero cells (originated from kidney cells of African Green Monkey) were cultured in MEM medium to which 10% bovine embryo serum had been added. A cell suspension adjusted to a concentration of 200,000 cells/ml was spread onto 96 wells plate (COSTAR) and cultured for 24 hours so that the cells became confluent. To the medium drawn out was added HSV-1 virus, and it was infected for one hour. Then, the virus fluid was drawn out and cultured for about 72 hours in a fresh medium containing agents. The alive cells were stained with a staining solution containing Neutral Red and absorbance at a wavelength of 546 nm (A546) was measured to evaluate the cytopathic effect (CPE).
CPE inhibition (%) was calculated according to the following equation: [formula] and a quantity of sample enough for 50% inhibition of the CPE due to virus was taken as IC50 (μg/ml).

hepatitis B virus (HBV) = assay: Antiviral activity against HBV, inhibition of HBV DNA synthesis in HB611 cells (Method 3); type: cell-based; settings: 360 h, 50% inhibition of HBV DNA synthesis, 15 days, read-out: ID50 HBV
Description: Antiviral activity against hepatitis B virus (HBV) which is a DNA virus was tested by the following method.
The test was done by using a cell line, HB611, that was established by transfection and continuously produces HBV like particles [Proc. Natl. Acad. Sci. USA, 84, 444-449, 1987]. HB611 cells were maintained in Dulbecco's modified Eagle medium (Gibco) supplemented with 10% fetal bovine serum (Gibco), 100 μg/ml of streptomycin, 100 IU ml of benzyl penicillin (Gibco) and 200 μg/ml of geneticin (Gibco) at 37° C. in 5% CO2 -95% air.
The cells were seeded in 24-well plate (Corning) at a density of 3×10^4 cells/well, using 1.0 ml of the medium. After 2 days of incubation, the medium was replaced with the same medium containing the test compound. The cells were incubated for a further 15 days, during which time the medium containing the drug was exchanged every three days. The cells were then harvested and cellular DNA was prepared [Virology, 169, 213-216, 1989], and digested with restriction enzyme Hind III (Takara Shuzo Co., Ltd.). An aliquot (2-3 μg) was electrophoresed in 1.5% agarose gel, followed by blotting onto a nylon membrane Hybond-N^+ according to Southern [J. Mol. Biol., 98, 503-517, 1975]. The filter was hybridized to random primed 32p labeled HBV DNA probe, and washed twice with 2× standard saline citrate containing 0.1% SDS at 65° C. for 30 min. It was then autoradiographed, and the results were analyzed using a densitometric analyzer (Shimadzu, Chromatoscana S930).
To quantitatively evaluate the inhibitory activity of the compounds, we measured the band areas S, D1, D2 (S, D1 and D2 represent intracellular free HBV DNA derived from replicative intermediates) and I (represents chromosomally integrated HBV DNA) by densitometric analyzer, and calculated the inhibition percentage as follows: [formula]
In table 1, antiviral activity is represented by 50% inhibition doses (ID50) on HBV DNA synthesis.

Row | Compound | AUC, intravenous injection [1] [ng·h/mL] | Tmax, intravenous injection [1] | AUC, oral administration [1] [ng·h/mL] | Tmax, oral administration [1] | EC50 [2] [µg/mL] | IC50 [3] [µg/mL] | IC50 (hepatitis B virus (HBV)) [µg/mL]
1 | Nc1nc2c(ncn2[C@@H]2C[C@H](CO)[C@H]2COP(=O)(O)Oc2ccccc2)c(=O)[nH]1 [Compound 13, 9-[(1R,2R,3S)-3-hydroxymethyl-2-(hydroxy-(phenoxy)phosphoryl)oxymethyl-1-cyclobutyl]-guanine] | 2962 | 10 ' | 1122 | 30 ' |  |  | 
2 | Cc1ccc(OP(=O)(O)OC[C@H]2C[C@@H](n3cnc4c(=O)[nH]c(N)nc43)[C@@H]2CO)cc1 [Compound 68, 9-[(1R,2R,3S)-2-hydroxymethyl-3-(hydroxy(4-methylphenoxy)phosphoryl)oxymethyl-1-cyclobutyl]-guanine] | 4116 | 10 ' | 1754 | 30 ' | 0.1 to 1 (≈ 0.23 to 2.3 µM) | 1.26 (≈ 2.89 µM) | 0.1 to 1 (≈ 0.23 to 2.3 µM)
3 | Nc1nc2c(ncn2[C@@H]2C[C@H](COP(=O)(O)Oc3ccccc3Cl)[C@H]2CO)c(=O)[nH]1 [Compound 50, 9-[(1R,2R,3S)-2-hydroxymethyl-3-(hydroxy(2-chlorophenoxy)phosphoryl)oxymethyl-1-cyclobutyl]-guanine] | 3177 | 10 ' | 1526 | 30 ' | 1 to 3 (≈ 2.19 to 6.58 µM) | 1.13 (≈ 2.48 µM) | ~0.1 (≈ 0.219 µM)
4 | Nc1nc2c(ncn2[C@@H]2C[C@H](COP(=O)(O)Oc3ccc(Cl)cc3)[C@H]2CO)c(=O)[nH]1 [Compound 56, 9-[(1R,2R,3S)-2-hydroxymethyl-3-(hydroxy(4-chlorophenoxy)phosphoryl)oxymethyl-1-cyclobutyl]-guanine] | 3167 | 10 ' | 1762 | 10 ' | 1 to 3 (≈ 2.19 to 6.58 µM) | 0.699 (≈ 1.53 µM) | 0.1 to 1 (≈ 0.219 to 2.19 µM)
5 | Nc1nc2c(ncn2[C@@H]2C[C@H](COP(=O)(O)Oc3ccc(F)cc3)[C@H]2CO)c(=O)[nH]1 [Compound 65, 9-[(1R,2R,3S)-2-hydroxymethyl-3-(hydroxy(4-fluorophenoxy)phosphoryl)oxymethyl-1-cyclobutyl]-guanine] | 6373 | 10 ' | 1712 | 30 ' | 1 to 3 (≈ 2.28 to 6.83 µM) | 1.13 (≈ 2.57 µM) | 0.1 to 1 (≈ 0.228 to 2.28 µM)
6 | Nc1nc2c(ncn2[C@@H]2C[C@H](COP(=O)(O)Oc3ccccc3)[C@H]2CO)c(=O)[nH]1 [Compound 14, 9-[(1R,2R,3S)-2-hydroxymethyl-3-(hydroxy-(phenoxy)phosphoryl)oxymethyl-1-cyclobutyl]-guanine] | 5076 | 10 ' | 2262 | 30 ' |  |  | 
7 | Nc1nc2c(ncn2[C@@H]2C[C@H](COP(=O)(O)Oc3cccc(Cl)c3)[C@H]2CO)c(=O)[nH]1 [Compound 53, 9[-(1R,2R,3S)-2-hydroxymethyl-3-(hydroxy(3-chlorophenoxy)phosphoryl)oxymethyl-1-cyclobutyl]-guanine] | 3228 | 10 ' | 1405 | 30 ' | 1 to 3 (≈ 2.19 to 6.58 µM) | 1.22 (≈ 2.68 µM) | 0.1 to 1 (≈ 0.219 to 2.19 µM)
8 | COc1ccc(OP(=O)(O)OC[C@H]2C[C@@H](n3cnc4c(=O)[nH]c(N)nc43)[C@@H]2CO)cc1 [Compound 71, 9-[(1R,2R,3S)-2-hydroxymethyl-3-(hydroxy(4-methoxyphenoxy)phosphoryl)oxymethyl-1-cyclobutyl]-guanine] | 4393 | 10 ' | 1678 | 10 ' | 0.1 to 1 (≈ 0.222 to 2.22 µM) | 0.873 (≈ 1.93 µM) | 0.1 to 1 (≈ 0.222 to 2.22 µM)
